Assay results from patent publication US7977304B2, “FK 228 derivates as HDAC inhibitors” (University of Southampton Highfield, priority 2005, dated 2011).

Key:
[1] = tested on: HUT78 T-cell leukaemia cells; assay: CyQuant cell proliferation assay, HUT78; format: cell-based, human; conditions: data not shown
[2] = tested on: PC3 prostate cancer cells; assay: Activity Assay 6: CyQuant cell growth inhibition, PC3; format: cell-based; conditions: Homo sapiens, 96 h, PC3, 4 days
Experimental: We analysed the ability of compounds to inhibit the in vitro growth of human cancer cells. Cell proliferation assays were performed using the CyQuant™ assay system (Molecular Probes, Inc. USA) according to the manufacturer's instructions. MCF7 breast, A2780 ovarian and PC3 and LNCAP prostate cancer cells were plated in 96 well plates, at a density of 1000 cells for MCF7 cells or 5000 cells for M780/PC3/LNCAP cells, in 100 μl of cell culture medium per well. Compounds were added a minimum of 5 hours later, in serial dilutions in cell culture medium, in 100 μl volumes at 2× final concentration. Cell culture medium was removed after 4 (A2780, PC3 or LNCAP cells) or 6 days (MCF7 cells) by inversion of the plate onto blotting paper and cells were gently washed once with 200 μl PBS. Plates were frozen immediately for a minimum of one hour at −80° C. and then thawed. 200 μl of 1× CyQuant cell lysis buffer supplemented with dye, made according to the manufacturer's instruction, was added immediately to each well and incubated at room temperature for 3-5 minutes. Fluorescence was then measured for each well using a Cytofluor II Fluoresence Multiwell Plate Reader and CytoFluor II software with filters at 480 nm for excitation and 520 nm for emission maxima. Cell proliferation was determined for mean values of duplicate samples as percentages relative to untreated cell samples (=100%). Growth inhibition curves were used to derive IC50 values.

[3] = tested on: TNFα production from peripheral blood mononuclear cells (PBMCs); assay: Activity Assay 7: LPS-induced TNFα secretion from PBMCs (QUANTIKINE immunoassay); format: cell-based; conditions: Homo sapiens, PBMC; Concentration 200 nM
Experimental: We analysed the ability of compounds to inhibit the production of TNFα from peripheral blood mononuclear cells (PBMCs). TNF-α immunoassays were carried out using the QUANTIKINE® Human TNF-α assay kit (R&D systems, Abingdon UK) according to the manufacturer's instructions. […] Compounds were added 1 hour later in volumes of 100 μl at 6× final concentration. Five hours later lipopolysaccharide (LSP, Sigma, Poole, UK) was added in a volume of 10 μl at 60× final concentration. Plates were mixed and left overnight at 37° C. 5% C02. Plates were centrifuged and cell supernatant was transferred to a new plate. The QUANTIKINE® assay reagents and standards were prepared according to the manufacturer instructions. The QUANTIKINE® assay plate was prepared by adding 50 μl of assay diluent RD1F into each well. This was followed by 200 μl of standard or 100 μl of calibrator diluent plus 100 μl cell supernatant; this was incubated for 2 hours at room temperature (RT). The plate was washed using wash buffer 4 times. After the final wash the plate was tapped on clean paper towel to remove all residual buffer. 200 μl of TNF-α conjugate was added to each well and incubated for 1 hour at RT. The plate was then washed as before. The required amount of substrate solution was prepared by adding equal volumes of colour reagents A and B, protecting from light, 200 μl of this mix was added to each well and incubated for 20 mins at RT, protected from light. 50 μl of stop solution was added to each well in the same order as the substrate solution and the plate was read on a Biorad 680 96 well plate reader (Bio-Rad, Hemel Hempstead, UK) at 450 nm with λ correction at 570 nm. TNF-α levels were determined for mean values of duplicate samples using absorbance in nm, calibration zero values were subtracted from all results to correct for the addition of calibrator diluent in the assay.

[4] = tested on: normal human dermal fibroblasts (NHDF); assay: Activity Assay 1: CyQuant cell proliferation assay, NHDF; format: cell-based; conditions: 144 h, read-out: mean IC50 for growth inhibition (±SD), NHDF
Experimental: (§1) Method; Cell proliferation assays were performed using the CyQuant™ assay system (Molecular Probes, Inc. USA) according to the manufacturer's instructions. This system utilises a proprietary green fluorescent dye which undergoes strong fluorescent enhancement on binding cellular nucleic acids, to allow determination of cell number with a linear detection range between 50 to 250,000 cells. Estrogen receptor positive MCF7 breast cancer cells (ECAAC) and NHDF cells (Cambrex, UK) were plated in 96 well plates, at a density of 1000 cells in 100 μl of cell culture medium per well. Compounds were added a minimum of 5 hours later, in serial dilutions in cell culture medium, in 100 μl volumes at 2× final concentration. Six days later cell culture medium was removed by inversion of the plate onto blotting paper and cells were gently washed once with 200 μl PBS. […] Fluorescence was then measured for each well using a Cytofluor II Fluoresence Multiwell Plate Reader and CytoFluor II software with filters at 480 nm for excitation and 520 nm for emission maxima. Cell proliferation was determined for mean values of duplicate samples as percentages relative to untreated cell samples (=100%). […]
(§2) MCF7 and NHDF were incubated with the indicated concentrations of compounds. After 6 days cell growth relative to untreated cells (=100%) was determined using the CyQuant™ assay. […]

[5] = tested on: MCF7 human breast cancer cells; assay: Activity Assay 1: CyQuant cell proliferation assay, MCF7; format: cell-based
Experimental: as §1, §2

[6] = tested on: acetylated histone H4 in primary chronic lymphocytic leukaemia cells; assay: Histone H4 acetylation in primary chronic lymphocytic leukaemia cells; format: cell-based; conditions: data not shown

IC50 [2]: 50 nM
IC50 ([5]; Homo sapiens, 144 h, MCF7, 6 days, CyQuant, mean ± SD of multiple experiments, read-out: mean IC50 for growth inhibition (±SD), MCF7): 121 ± 52 nM
SMILES: CC(C)[C@H]1NC(=O)[C@H]2CSSCC/C=C/[C@H](CC(=O)N[C@H](C)C(=O)N2)OC(=O)CNC1=O [Compound 9A, (E)-(1S,7R,10S,21R)-7-isopropyl-21-methyl-2-oxa-12,13-dithia-5,8,20,23-tetraaza-bicyclo[8.7.6]tricos-16-ene-3,6,9,19,22-pentaone]
growth of HUT78 T-cell leukaemia cells [1]: inhibited the growth of these cells
inhibition at 0.2 µM [3]: 69%
IC50 [4]: 420 ± 42 nM
potency of cancer cell growth inhibition compared with SAHA ([5]; MCF7, p=0.003, Student's t-test): significantly more potent than SAHA
levels of acetylated histone H4, primary chronic lymphocytic leukaemia cells [6]: increased the levels of acetylated histone H4
